Measured values from patent US10278999B2, “Synthesis of Nuxia oppositifolia nanoparticles” (KING SAUD UNIVERSITY, priority 2017, dated 2019).

What was measured:
Experiment in all cases: Antimicrobial activity, agar diffusion technique
Format in all cases: cell-based
Conditions in all cases: mean ± S.D. beyond well diameter (6 mm), 100 μl of samples
[1] = system: Geotricum candidum (RCMB 05097)
Method: (§1) The antimicrobial effect of N. oppositifolia nanoparticles synthesized according to Example 1 were evaluated against gram positive bacteria, gram negative bacteria, as well as fungi.
(§2) The antimicrobial effect of N. oppositifolia nanoparticles synthesized according to Example 2 were evaluated against gram positive bacteria, gram negative bacteria, as well as fungi.

[2] = system: Absidia corymbifera (RCMB 02564)
Method: as §1, §2

[3] = system: Candida albicans (RCMB 05036)
Method: as §1, §2

[4] = system: Streptococcus pyogenes (RCMB 010015)
Method: as §1, §2

[5] = system: Staphylococcus epidermidis (RCMB 010024)
Method: as §1, §2

[6] = system: Klebsiella pneumoniae (RCMB 0010093)
Method: as §1, §2

[7] = system: Salmonella enteritidis (RCMB 010084)
Method: as §1, §2

[8] = system: Proteous vulgaris (RCMB 010085)
Method: as §1, §2

## C[C@@H]1[C@H](O)[C@@H](C)/C=C/C=C/C=C/C=C/C=C/C=C/C=C/[C@H](O[C@@H]2O[C@H](C)[C@@H](O)[C@H](N)[C@@H]2O)C[C@@H]2O[C@](O)(C[C@@H](O)C[C@@H](O)[C@H](O)CC[C@@H](O)C[C@@H](O)CC(=O)O[C@H]1C)C[C@H](O)[C@H]2C(=O)O [Amphotericin B]
[1]
  Zone of Inhibition (±SD): 27.0 ± 0.20 mm
[2]
  Zone of Inhibition (±SD): 23.0 ± 0.10 mm
[3]
  Zone of Inhibition (±SD): 25.7 ± 0.10 mm

## CC1(C)S[C@@H]2[C@H](NC(=O)[C@H](N)c3ccccc3)C(=O)N2[C@H]1C(=O)O [Ampicillin]
[4]
  Zone of Inhibition (±SD): 26.3 ± 0.34 mm
[5]
  Zone of Inhibition (±SD): 25.0 ± 0.18 mm

## Gentamycin
[6]
  Zone of Inhibition (±SD): 26.4 ± 0.15 mm
[7]
  Zone of Inhibition (±SD): 25.2 ± 0.18 mm
[8]
  Zone of Inhibition (±SD): 23.4 ± 0.30 mm
